What is called kinetic solubility is the concentration staying in solution when a stock, usually in DMSO, is diluted into the medium.

In brackets after ≈: the same amount, converted by molar mass. Where only a bound is given, the exact number is not on record here.

For the data set the following is noted: buffer; pH 7.4; 6.0 h; 150.0 µM.
For the molecule `O=C(Nc1ccc(Cl)c(S(=O)(=O)N2CCOCC2)c1)c1ccc(S(=O)(=O)N2CCCCC2)cc1`, the kinetic solubility was less than 1 µg/mL.

Regarding `Nc1ccccc1CNc1ccc(S(=O)(=O)Nc2nccs2)cc1`, the solubility (kinetic) is more than 53 µg/mL.

With `COc1ccccc1-c1[nH]nc2ncc(-c3ccc(C)cc3)nc12`, the solubility (kinetic) was less than 1 µg/mL.

As to `COc1ccc(-c2nc(NC(C)c3ccccc3)c3ccccc3n2)cc1` (stereo not given), the kinetic solubility was less than 1 µg/mL.

In turn, `Cc1cccc(-c2csc(N3CCC(C(N)=O)CC3)n2)c1` displayed a kinetic solubility of more than 45 µg/mL.

For the molecule `Cc1cc(NS(=O)(=O)c2ccc(NC(=O)Cc3ccc(Cl)c(Cl)c3)cc2)no1`, the solubility (kinetic) is more than 65 µg/mL.

As to `Cc1ccc(C(=O)Nc2nc(-c3ccccn3)cs2)cc1S(=O)(=O)N1CCOCC1`, the kinetic solubility was 7.21 µg/mL (≈ 16.2 µM).

With `O=C(Nc1cccc(Cc2ccccc2)n1)c1ccc(-c2cccc([N+](=O)[O-])c2)o1`, the kinetic solubility was 2.73 µg/mL (≈ 6.84 µM).

In turn, `CCCNC(=O)c1ccc2c(c1)N=C(C)c1c(C)ccc(C)c1S2` gave a kinetic solubility of 2.73 µg/mL (≈ 8.08 µM).

Molecule `CCC(=O)NC(c1cccs1)c1cc([N+](=O)[O-])c2cccnc2c1O` (stereo not given) gave a kinetic solubility of more than 53 µg/mL.

With `Cc1ccnc(NC(=S)N2CC[C@@H](Nc3cccc(C(F)(F)F)c3)C2)c1`, the solubility (kinetic) was 7.92 µg/mL (≈ 20.8 µM).

As for `Cc1cc(C)nc(NC(=S)N2CCN(c3cccc(OC(F)F)c3)CC2)c1`, the solubility (kinetic) was 11.6 µg/mL (≈ 29.4 µM).

`N#C/C(=C\c1ccc(-c2ccc(C(=O)O)cc2)o1)c1nc2ccccc2[nH]1` registered a solubility (kinetic) of less than 1 µg/mL.

Regarding `COc1cccc2nc(-c3cccs3)nc(NN3C(=O)C=C(C)C3=O)c12`, the solubility (kinetic) was more than 54 µg/mL.

`COc1ccc(-n2nc(C3CCCN([S+](=O)([O-])c4cccc(C(F)(F)F)c4)C3)[nH]c2=O)cc1` (stereo not given): the kinetic solubility is less than 1 µg/mL.

`Nc1nc(Nc2ccc(S(N)(=O)=O)cc2)nn1C(=O)c1c(F)cccc1F` yielded a kinetic solubility of 45.6 µg/mL (≈ 116 µM).

`CCOc1ccc(N2C(=O)c3n[nH]c(-c4cccs4)c3C2c2cccc(F)c2)cc1` (stereo not given) registered a solubility (kinetic) of less than 1 µg/mL.

`CN1CCN(C2=Nc3ccccc3Sc3ccc(Cl)cc32)CC1`: the kinetic solubility was determined as 18.7 µg/mL (≈ 54.3 µM).

Molecule `CCn1ncc(NC(=O)Cn2ncc3cc(-c4cccc(OC)c4)ccc32)n1` came in with a kinetic solubility of less than 1 µg/mL.

The molecule `CC1=C(C(=O)NCc2ccccc2)C(c2ccccc2Br)N=C(Nc2nc3ccccc3o2)N1` (stereo not given) came in with a kinetic solubility of less than 1 µg/mL.

For the molecule `Cc1ccc(S(=O)(=O)Nc2ccccc2C(=O)Nc2nc(-c3ccccc3)co2)cc1`, the solubility (kinetic) is less than 1 µg/mL.

With `C[C@@]1(c2ncncc2F)NC(=O)c2cc(-c3cn[nH]c3)ccc21`, the solubility (kinetic) worked out at 17.9 µg/mL (≈ 58 µM).

For the molecule `Cc1ccc2oc(NC3=NC(c4ccccc4Cl)C4=C(CCCC4=O)N3)nc2c1` (stereo not given), the solubility (kinetic) is less than 1 µg/mL.

The molecule `COc1ccc(C2Nc3ccccc3C(=O)N2Cc2cccnc2)cc1COc1c(C)cc(NC(C)=O)cc1C` (stereo not given) displayed a solubility (kinetic) of 1.69 µg/mL (≈ 3.16 µM).

Regarding `COc1cc2c(cc1OCCCN1CCCC1)N=C(N)C21CCC1`, the solubility (kinetic) is more than 49 µg/mL.

Molecule `COc1ccc(NC(=O)c2[nH]c(C)c(C(C)=O)c2C)cc1` yielded a solubility (kinetic) of 35.3 µg/mL (≈ 123 µM).

As to `COc1ccc(-n2nc(C3CCCN(CC4CCCCC4)C3)[nH]c2=O)cc1` (stereo not given), the solubility (kinetic) was more than 37 µg/mL.

`O=C1CCCC2=C1C(c1[nH]ncc1Cl)N=C(Nc1nc3cccc(Cl)c3o1)N2` (stereo not given): the kinetic solubility is less than 1 µg/mL.

Consider `COc1cc(NC(=O)Cn2c(=O)oc3cc(S(=O)(=O)N4CCCCCC4)ccc32)cc(OC)c1`, for which the kinetic solubility was less than 1 µg/mL.

The molecule `CCOc1ccc(-c2csc(N3CCC(C(N)=O)CC3)n2)cc1` came in with a solubility (kinetic) of 11 µg/mL (≈ 33.2 µM).

`O=C(NCCN1CCOCC1)C1CC(=O)N(c2n[nH]c3cc(Br)ccc23)C1` (stereo not given) registered a solubility (kinetic) of 32.5 µg/mL (≈ 74.5 µM).

With `CNc1oc(-c2cccc(Cl)c2Cl)nc1C#N`, the solubility (kinetic) is less than 1 µg/mL.

`Cc1ccc(C)c(NC2=C(c3ccc(C(F)(F)F)cc3)C(=O)c3ccccc32)c1` displayed a kinetic solubility of less than 1 µg/mL.

`Cc1ccc(-c2cc(C(=O)Nc3ccncc3)c3ccccc3n2)cc1` showed a kinetic solubility of less than 1 µg/mL.

On to `Cc1cc(Nc2nc(-c3ccncc3)nc3ccccc23)n[nH]1`, for which the kinetic solubility was found to be 1.1 µg/mL (≈ 3.65 µM).

In the case of `COc1ccc(-c2ccc3nc(-c4cc(F)cc(F)c4F)oc3c2)c(OC)c1OC`, the solubility (kinetic) is less than 1 µg/mL.

Turning to `O=C(Cc1c[nH]c2ncc(-c3ccc(Cl)cc3)cc12)NCc1cccnc1`, the kinetic solubility was determined as 17.5 µg/mL (≈ 46.4 µM).

Consider `Cc1ccc(-c2ccc(CNc3nc(-c4ccccc4C(C)C)ncc3F)cc2)cn1`, for which the kinetic solubility was less than 1 µg/mL.

As to `Cc1ccc(NC(=O)C(Cc2ccccc2)NS(=O)(=O)c2cccs2)cc1Cl` (stereo not given), the kinetic solubility was less than 1 µg/mL.

`CC1CCN(C(=O)c2ccc(-c3ccc(N4CCSCC4)nc3)cc2)CC1` came in with a kinetic solubility of 2.44 µg/mL (≈ 6.4 µM).

`CCOc1ccc(CNc2ccc3c(c2)ncn3C)cc1` returned a solubility (kinetic) of more than 42 µg/mL.

In turn, `Cc1cn2c(N)c(Cl)cc(C(=O)NCC3CCN(CC(C)C)CC3)c2n1` returned a solubility (kinetic) of 39.2 µg/mL (≈ 104 µM).

`C[C@]12N[C@H](Cc3ccccc31)c1ccccc12` showed a kinetic solubility of more than 33 µg/mL.

Regarding `COc1ccc(C)cc1NC(=O)c1cnc(-c2ccc(F)cc2)nc1-c1ccncc1`, the solubility (kinetic) is less than 1 µg/mL.

As to `O=C(Nc1ncc(Cc2ccc(C(F)(F)F)cc2)s1)c1cnc(-c2ccccc2)o1`, the kinetic solubility is less than 1 µg/mL.

Regarding `Oc1ccccc1CN1CCNc2cc(Nc3ccccc3)ncc2C1`, the kinetic solubility was determined as 24.3 µg/mL (≈ 70.1 µM).

Take `Cc1ccc(S(=O)(=O)Nc2cnccc2C(=O)Nc2nc(C3CCC3)cs2)cc1`: the solubility (kinetic) was more than 63 µg/mL.

As to `COc1oc(-c2cccc3ccccc23)nc1C(=O)O`, the kinetic solubility is more than 40 µg/mL.

`CCC(CC)C(=O)NC[C@@H]1C=C(C)[C@H](Cc2nc3c(C)cccc3[nH]2)C[C@H]1C(C)C` showed a solubility (kinetic) of 4.34 µg/mL (≈ 10.6 µM).

Consider `Nc1c(-c2ccccc2)cc[nH]c1=O`, for which the solubility (kinetic) amounted to 12.9 µg/mL (≈ 69.1 µM).

The molecule `CCCCCCOc1ccc(OC(=O)c2ccncc2)cc1` had a solubility (kinetic) of less than 1 µg/mL.

Molecule `COc1cc(C2CC(=O)Nc3cc4c(cc32)OCCO4)cc(Br)c1OC` (stereo not given) displayed a kinetic solubility of less than 1 µg/mL.

`COc1ccc(-c2csc(N3CCC(C(N)=O)CC3)n2)cc1` gave a kinetic solubility of more than 47 µg/mL.

On to `C[C@@H](NC(=O)c1ncnc(N)c1Cl)c1ncc(C(=O)Nc2cc(C(F)(F)F)c(Cl)cn2)s1`, for which the solubility (kinetic) was more than 75 µg/mL.

In turn, `COc1ccccc1N1CCN(CCN(C(=O)c2ccc(F)cc2)c2ccccn2)CC1` registered a solubility (kinetic) of more than 64 µg/mL.

`Cc1ccc(S(=O)(=O)Nc2cccc(C(=O)Nc3nc(-c4ccccc4)cs3)c2)cc1`: the kinetic solubility was less than 1 µg/mL.

Molecule `CN(C)c1cc(-c2nc(Nc3ccc(F)c(F)c3)c3ccccc3n2)ccn1` returned a solubility (kinetic) of less than 1 µg/mL.

Consider `O=C(NC[C@H]1Cn2c(-c3ccc(Cl)cc3)cnc2CO1)C1CCCC1`, for which the solubility (kinetic) is more than 36 µg/mL.

Molecule `COc1ccc(NS(=O)(=O)c2ccc(C)cc2)cc1C(=O)Nc1nc(-c2ccccc2)cs1` gave a solubility (kinetic) of less than 1 µg/mL.

In turn, `N#Cc1cccc(-c2csc(N3CCC(C(N)=O)CC3)n2)c1` displayed a kinetic solubility of 10.7 µg/mL (≈ 34.3 µM).

Regarding `Cc1cc(C)nc(NC(=S)N2CCN(c3cc(C(F)(F)F)nc4ccccc34)CC2)c1`, the solubility (kinetic) amounted to 19.7 µg/mL (≈ 44.3 µM).

`COc1cc(C(=O)N2CCN(c3cc(Cl)ccc3Cl)CC2)cc(OC)c1OC` gave a solubility (kinetic) of less than 1 µg/mL.

In turn, `COc1cccc(Nc2ncc(-c3cccc(N(C)C)c3)c3c2OCC3)c1` showed a kinetic solubility of less than 1 µg/mL.

In turn, `CC(C)c1ccc(CC(=O)N2CCCc3ncc(C(=O)Nc4cccnc4)cc32)cc1` yielded a kinetic solubility of 27.7 µg/mL (≈ 66.9 µM).

On to `COc1ccc(-c2nc(-c3c(C)noc3C)cc3c2cc(C)n3CCN(C)C)cc1OC`, for which the solubility (kinetic) is more than 96 µg/mL.

Molecule `N=c1c2c(ncn1-c1ccccc1)Oc1ccc3ccccc3c1C2c1ccc2c(c1)CCO2` (stereo not given) yielded a kinetic solubility of 2 µg/mL (≈ 4.5 µM).

`CCCCN(CC)CCNC(=O)c1cc2c(-c3ccc(Cl)cc3)nn(C)c2s1` had a solubility (kinetic) of more than 62 µg/mL.

The molecule `Fc1ccccc1CNCc1ccc(-c2ccnc3[nH]ccc23)cc1` had a solubility (kinetic) of 13.2 µg/mL (≈ 39.8 µM).

Molecule `COc1ccc(-c2csc(CCn3nc(C)c4c(C(F)(F)F)cc(=O)[nH]c43)n2)cc1` came in with a solubility (kinetic) of less than 1 µg/mL.

Regarding `CCCN(C(=O)c1sc2nc3n(c(=O)c2c1C)CCCC3)c1ccccc1C`, the solubility (kinetic) amounted to 1.83 µg/mL (≈ 4.64 µM).

In the case of `COc1cc(Nc2nc(-c3ccncc3)nc3ccccc23)ccc1F`, the solubility (kinetic) is less than 1 µg/mL.

With `O=C(Nc1ccc(S(=O)(=O)Nc2nccs2)cc1)c1ccc2ccccc2c1`, the kinetic solubility was less than 1 µg/mL.

For `N[C@@H](Cc1cc(Br)c(O)c(Br)c1)C(=O)O`, the kinetic solubility was more than 50 µg/mL.

Turning to `COc1ccc(CNC(=O)Cn2nc3c(cc2=O)CCCC3)cc1`, the solubility (kinetic) was more than 48 µg/mL.

In turn, `COC(=O)c1ccnc(-c2cc(C(=O)Nc3ccc(C4(N)CC4)cc3)ccn2)c1` came in with a kinetic solubility of 12.8 µg/mL (≈ 32.8 µM).

For the molecule `Fc1ccc(-c2csc3ncnc(Sc4nnnn4C4CC4)c23)cc1`, the solubility (kinetic) was determined as 2.91 µg/mL (≈ 7.85 µM).

Molecule `CCCCCCN(CCCCCC)C(=O)Cc1c(-c2ccc(F)cc2)[nH]c2ccccc12` returned a kinetic solubility of less than 1 µg/mL.

`NC1CCN(c2nc(-c3ccc(Br)cc3)cs2)CC1` yielded a solubility (kinetic) of 8.9 µg/mL (≈ 26.3 µM).

`[2H]C([2H])(Nc1nc(-c2ccccc2C([2H])(C([2H])([2H])[2H])C([2H])([2H])[2H])ncc1C)c1ccc(-n2ccnn2)cc1` showed a kinetic solubility of 13.5 µg/mL (≈ 34.3 µM).

As to `CSc1ccccc1-c1ccc(Nc2nc(-c3ccncc3)nc3ccccc23)cc1F`, the kinetic solubility is less than 1 µg/mL.

The molecule `COc1ccc(Nc2nnc(-c3ccc(C)c(S(=O)(=O)NCc4nc5ccccc5[nH]4)c3)c3ccccc23)cc1` returned a kinetic solubility of less than 1 µg/mL.

Turning to `Cc1csc2c1c(=O)n(O)c(=O)n2Cc1ccccc1`, the kinetic solubility was more than 43 µg/mL.

In turn, `COc1ccc(-c2nc3sc(CCNC(=O)C(C)(C)C)c(C)n3n2)cc1` registered a kinetic solubility of more than 55 µg/mL.

As for `Oc1c(C(Nc2nccs2)c2ccc(C(F)(F)F)cc2)ccc2cccnc12` (stereo not given), the kinetic solubility was less than 1 µg/mL.

The molecule `Cc1cccc(N2CCN(c3nc4ccccc4c4nnc(C)n34)CC2)c1C` had a solubility (kinetic) of less than 1 µg/mL.

As to `Cc1ccc(S(=O)(=O)Nc2ccccc2N2CCCCC2)cc1`, the kinetic solubility was less than 1 µg/mL.

`NC(=O)C1CCN(c2nc(-c3ccccc3[N+](=O)[O-])cs2)CC1` gave a solubility (kinetic) of more than 49 µg/mL.

In the case of `Clc1ccccc1-c1nnc2sc(-c3ccc4c(c3)OCO4)nn12`, the solubility (kinetic) was less than 1 µg/mL.

As to `CCOC(=O)c1[nH]c(C)c(CCC(=O)N2CCN(c3cc(C)ccc3C)CC2)c1C`, the kinetic solubility is 6.25 µg/mL (≈ 15.2 µM).

In the case of `Cc1nn2c(c1-c1ccccc1-c1ccccc1)N(CC1CC1)CCC2`, the kinetic solubility amounted to 1.56 µg/mL (≈ 4.53 µM).
